Values joined by “and” are separate entries in the source; they are usually repeats but may differ in a detail not shown here. Equal values may be shown once. Active and inactive are the calls of the source.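 How the source made its calls: active means compounds giving half or more protection of infected cells from virus-caused growth loss, again on retest; inactive means the rest.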 Where a SMILES comes first, the peptide text is derived from it. Bridges are numbered along the chain shown (N, C = ends). Roman numbers before positions name the chains, in order. The star is where a group is joined. Cbz = O=C(OCc1ccccc1)*
Tested on: CEM cells HIV-1 protection, formazan growth assay
Assay: NCI AIDS Antiviral Assay
Conditions: for IC50: measured here: growth of uninfected CEM cells
In short: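 Soluble formazan readout of cell growth; CEM cells ± HIV-1; 5 drug concs. ≥50% protection → retest; ≥50% again = moderately active; reproducible 100% = confirmed active.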

Compound	EC50	IC50	outcome
N#Cc1c2ccc([N+](=O)[O-])cc2c(=O)n2c1sc1ccccc12	> 200 µM	10.7 µM	
CC(C(=O)c1ccc(O)cc1)C1(O)C(=O)Nc2c(Cl)cc(Cl)cc21 (centres undefined)	> 257 µM	112 µM	
CNC(=O)OCC1=CC(=O)C(OC)=CC1=O	> 200 µM	10 µM	
COc1ccc(/C=C\c2cc(OC)c(OC)c(OC)c2)cc1OC(=O)CCC(=O)O	> 0.2 µM	0.000562 µM	
O=C(O)c1cc2ccccc2[nH]c1=O			inactive
COc1ccc(CNC(=O)NCn2cc(-c3ccccc3)nn2)cc1	> 200 µM	> 200 µM	
O=C(/C=C/c1ccccc1O)c1ccc([N+](=O)[O-])cc1	> 95.5 µM	53.7 µM	
CN1CCN(CCCCN2c3ccccc3Sc3ccc(C(=O)c4ccccc4)cc32)CC1	> 100 µM	4.47 µM	
O=C(O)/C(=C\c1ccccc1Cl)S(=O)(=O)c1ccccc1			inactive
NNC(=O)c1n[nH]nc1C(=O)NN	> 200 µM	> 200 µM	
CC1COB(c2ccccc2)OCC(C)N1CNC(=O)C1=C(O)C2(O)C(O)=C3C(=O)C4C(O)=CC=CC4C(C)(O)C3CC2C(N(C)C)C1=O (centres undefined)	15.1 µM	19.5 µM	
CCC1(N)C(=O)OCc2c1cc1n(c2=O)Cc2cc3ccccc3nc2-1 (centres undefined)	> 200 µM	0.813 µM	
NC(=O)C(=CNC(=S)Nc1ccccc1)C(N)=O	> 200 µM	> 200 µM	
CC(C)C(NC(=O)C(CSSCC(NC(=O)OCc1ccccc1)C(=O)NC(C(=O)O)C(C)C)NC(=O)OCc1ccccc1)C(=O)O (stereo not drawn) (I: Cbz-Cys-Val-OH / II: Cbz-Cys-Val-OH; disulfide I:1-II:1; configuration not given here)	> 200 µM	112 µM	
COc1ccc(S(=O)(=O)c2ccc(C(=O)O)cc2)cc1	> 200 µM	> 200 µM	
COC(=O)C(Cc1c[nH]c2ccccc12)NP(=O)(O)OCC1OC(n2cc(F)c(=O)[nH]c2=O)CC1O (centres undefined)	> 200 µM	> 200 µM	
Cn1nnnc1SCC1=C(C(=O)O)N2C(=O)C(NC(=O)C(OC=O)c3ccccc3)C2SC1 (centres undefined)	> 200 µM	> 200 µM	
CC(=O)Oc1ccn2nc(C)c(Br)c2c1	> 200 µM	93.3 µM	
O=C1CCCCCCCCCCC1CN1CCCC1 (centres undefined)			inactive
COC(=O)c1ccc(NC(=O)O/N=C(\Cl)C(C)C)cc1	> 20 µM	3.63 µM	
CO[C@@]12[C@@H]3N[C@@H]3CN1C1=C(C(=O)C(N3CCCC3)=C(C)C1=O)[C@@H]2COC(N)=O	> 200 µM	0.631 µM	
CCC(C)C(NC(=O)c1ccccc1SC(=O)OCCCC[n+]1ccccc1)C(N)=O (centres undefined)			inactive
O=C(Nc1ccccn1)NC1CCCCC1	> 200 µM	195 µM	

Compound	EC50	IC50	outcome
Nc1nc2c(ncn2C2C=CC(O)CC2)c(=O)[nH]1 (centres undefined)	> 55 µM	> 55 µM	
CC1(C)OCC[C@@H]1[Si](C)(C)C			inactive
COC1CCC(CO)OO1 (centres undefined)	> 200 µM	3.09 µM	
C=CCOC(C)n1c(C)c(Br)c(=O)[nH]c1=O (centres undefined)		> 200 µM	inactive
COC(=O)[C@@H]1C[C@]2(CC=O)c3ccccc3N(S(=O)(=O)c3ccccc3)[C@@H]2N1C(=O)OC	> 100 µM	70.8 µM	
Cc1cn(C2C=CCCC2O)c(=O)[nH]c1=O (centres undefined)	> 200 µM	> 200 µM	
CC1CCOS(=O)O1 (centres undefined)	> 1820 µM	> 1820 µM	
CCc1cccc(CC)c1NC1=CC(=O)C(=O)c2ccccc21	> 23.4 µM	> 23.4 µM	
Nc1ccn(CC(=O)NCCCCO)c(=O)n1	> 200 µM	> 200 µM	
Cn1c(=O)n(CC2CS2)c2ccccc21 (centres undefined)	> 1120 µM	24.5 µM	
CC(=O)[C-](C)C(C)=O.CC(=O)[C-](C)C(C)=O.NCCNCCNC(=O)c1cccc2nc3ccccc3nc12.[Cl-].[Co+3]	> 151 µM	31.6 µM	
c1ccc(CN2CCc3[nH]c4ccccc4c3C2)cc1	> 200 µM	21.9 µM	
NC(N)=N/N=C/c1c(-c2ccc(Cl)cc2)nc2n1CCS2	> 200 µM	11.2 µM	
CCOc1ccc(C2OCCC(C)O2)cc1OC (centres undefined)	> 200 µM	> 200 µM	
CN1C(=O)CC(c2cccc(C3CC(=O)N(C)C3=O)n2)C1=O (centres undefined)	> 832 µM	> 832 µM	
O=C1CCCC(=O)N1n1c(Cc2ccc(Cl)cc2)n[nH]c1=O	> 200 µM	> 200 µM	
CC1(C)OC2C(=O)C=C(COCc3ccccc3)C2O1 (centres undefined)	> 200 µM	28.2 µM and 10 µM	
CC(C)(C)NNC(=O)/C(=C/c1ccc(Oc2ccc(Cl)c(Cl)c2)cc1)NC(=O)c1ccccc1	> 5.5 µM	> 5.5 µM	
COc1ccc(C[C@@H]2Cc3cc(OC)c(OC)cc3CN2C)cc1	> 692 µM	45.7 µM	
CC(C)(C)OC(=O)N1CCCC1C(=O)N1CCCC1C(=O)Oc1ccccc1 (centres undefined)	> 67.6 µM	> 67.6 µM	
Cc1cc2c(C)cc(=O)[nH]c2cc1N	> 200 µM	> 200 µM	
N#C/C(=C\c1ccc(F)cc1)c1nc(-c2cc3ccccc3oc2=O)cs1			inactive
CCN1C[C@]2(COC)CCC(=O)C34[C@@H]5C[C@@H]6C(O)[C@@H]5[C@](O)(C[C@@H]6OC)[C@@H](C(OC)[C@@H]32)[C@H]14 (some centres undefined)			inactive

Compound	EC50	IC50	outcome
COc1cccc(/C=C/c2nccc3ccccc23)c1OC	> 200 µM	12.9 µM	
NCc1ccccc1-c1c2nc(c(-c3ccccc3CN)c3ccc([nH]3)c(-c3ccccc3CN)c3nc(c(-c4ccccc4CN)c4ccc1[nH]4)C=C3)C=C2	> 9.77 µM	> 9.77 µM	
CCOC(=O)c1cnc2c(cnn2CC)c1NN=C(C)C	> 200 µM	117 µM	
OC1CSc2nc3ccccc3n2C1 (centres undefined)	> 200 µM	> 200 µM	
O=C(N/N=C/c1ccc(O)cc1)c1ccc(OCc2nc3ccccc3[nH]2)cc1	> 200 µM	> 200 µM	
CN(C)C=O.CN(C)C=O.CN1C(C(=O)Nc2ccccn2)=C([O-])c2ccccc2S1(=O)=O.CN1C(C(=O)Nc2ccccn2)=C([O-])c2ccccc2S1(=O)=O.[Cu+2]			inactive
N#Cc1ccccc1NC1OCC(O)C(O)C1O (centres undefined)			inactive
CCOC(=O)CC(=O)NC1CC2CCC1(C)C2(C)C (centres undefined)	> 200 µM	> 200 µM	
COc1cc(NCCCNCC(C)(C)C)c2ncccc2c1	> 200 µM	81.3 µM	
COc1ccc(/C=C2\C=Cc3ccccc32)cc1	> 16.2 µM	13.8 µM	
COc1ccc(CCCCl)c(C2=NCCc3ccccc32)c1	> 200 µM	7.08 µM	
CCCCCC=C(c1cc(Br)c(O)c(C(=O)O)c1)c1cc(Br)c(O)c(C(=O)O)c1	> 813 µM	151 µM	
CC(=O)c1cc2c3c(c1)c1cc4c(cc1c(=O)n3CC2)OCO4			inactive
CN(C)c1ccc(/C=C(\C#N)c2c(Cl)cccc2Cl)cc1	> 200 µM	4.57 µM	
O=C1OC2CSCC2O1 (centres undefined)	> 1700 µM	> 1700 µM	
O=C1NC(N2CCCCC2)=N/C1=C\c1cccs1	> 200 µM	151 µM	
O=c1[nH]nc(Cc2ccccc2)n1/N=C/c1ccccc1Cl	> 200 µM	> 200 µM	
Cc1nc2c(O)cc(Br)c(O)c2nc1C			inactive
C/C(=N\O)c1ccc2c3c(ccc([N+](=O)[O-])c13)CC2	> 200 µM	46.8 µM	
CC1(C)CCC(C)(C)C1C(=O)NC(O)C(=O)O (centres undefined)	> 200 µM	> 200 µM	
CC(=O)/C=C(/C=N/O)c1ccccc1	> 200 µM	> 200 µM	
[Cl][Tb]([Cl])[Cl]			inactive
CCN(CC)P1(=O)C=C(C)C2C1C1C=C(C)C2P1(=O)N(CC)CC (centres undefined)			inactive

Compound	EC50	IC50	outcome
O=[N+]([O-])c1ccc(CSc2c3ccccc3nc3ccccc23)cc1	> 200 µM	3.39 µM	
CC1(Cl)C2c3ccccc3C(c3ccccc32)C1(C)Cl (centres undefined)	> 24 µM	> 24 µM	
COc1ccc(/C=C/C(=O)CC(=O)/C=C/c2ccc(OC)cc2)cc1	> 200 µM	> 200 µM	
O=C(NN1C(=O)C=CC1=O)c1ccccc1Nc1ccccc1C(=O)NN1C(=O)C=CC1=O	63.1 µM	191 µM	
N#Cc1ccc(/C=C2\CCc3ccccc3C2=O)cc1	> 20 µM	> 20 µM	
CCN1C(=O)c2cc(=O)[nH]c(O)c2C1C (centres undefined)	> 468 µM	> 468 µM	
CCCCCCC(=O)COP(=O)(OCC(=O)CCCCCC)OCC1C=CC(n2cc(C)c(=O)[nH]c2=O)O1 (centres undefined)	0.562 µM	174 µM	
O=c1[nH]c(CCc2ccccc2)nc2ccccc12	> 7.94 µM	> 7.94 µM	
FC(F)(F)C[P+](c1ccccc1)(c1ccccc1)c1ccccc1	> 200 µM	46.8 µM	
O=C(O)c1c(O)c2cc(Cl)ccc2oc1=O	> 200 µM	158 µM	
NC1=CN(CCCO)C2=N/C(=C\c3ccccc3)C(=O)N12	> 200 µM	> 200 µM	
CC1CSS(=O)O1 (centres undefined)	> 200 µM	> 200 µM	
Cc1ccc(N=Nc2c(C)nn(-c3ccccc3)c2C)c(Br)c1			inactive
N#C/C(=C1/c2cc([N+](=O)[O-])ccc2-c2c1cc([N+](=O)[O-])cc2[N+](=O)[O-])N1CCCCC1	> 200 µM	> 200 µM	
CCOC(=O)c1ccc(N2C(=S)N(C(=O)c3ccccc3)C(=Nc3ccccc3)C2=Nc2ccccc2)cc1	> 200 µM	2.82 µM	
CC1C=CC(O)[C@]2(CO)CC3(CCC12)OCCO3 (some centres undefined)			inactive
COc1cc2c(c(OC)c1OC)-c1oncc1CC2	166 µM	282 µM	
Clc1ccc(C(c2ccc(Cl)cc2)c2cncnc2)cc1			inactive
CC(C)c1ccc(C2C3=C(N=C4SCC(=O)N42)C(=O)c2ccccc23)cc1 (centres undefined)	> 13.8 µM	> 13.8 µM	
CC(=O)Oc1ccc(/C=C/C(=O)O[C@@H](C)[C@H](C)OC(=O)/C=C/c2ccc(OC(C)=O)c(OC(C)=O)c2)cc1OC(C)=O	> 100 µM	5.62 µM	
Cc1nn(C)pc1P(C)(=S)n1nc(N(C)C)np1 (centres undefined)	> 776 µM	> 776 µM	

Reference: PubChem BioAssay AID179 (DTP/NCI, 2004)
